Measured values taken from patent US8110570B2, “Modulators of acetyl-coenzyme A carboxylase and methods of use thereof” (Cropsolution, Inc., priority 2008, dated 2012).

Legend:
hACC1 = molecular target: T1, hACC1 (Homo sapiens, UniProt Q13085); assay: [14C]bicarbonate incorporation assay, overall ACC activity; format: biochemical; details: recombinant hACC1, overall ACC activity
T1 construct: PCR primers were designed for full-length hACC1 and hACC2 using GenBank submissions AY237919 and AJ575592, respectively; His tag (C); made in house; host or cells: baculovirus, Sf9 insect cells
Protocol: (§1) In vitro IC50 values of human ACC were determined using recombinant enzyme produced by standard procedures. For example, full-length cDNAs for both the human isoforms (hACC1 and hACC2) were each cloned and expressed as a recombinant protein using a baculovirus system. Double stranded cDNA from human fetal liver (Quick-Clone cDNA, cat. #7171-1) was purchased from BD/Clontech (Mt. View, Calif.). PCR primers were designed for full-length hACC1 and hACC2 using GenBank submissions AY237919 and AJ575592, respectively. The Advantage GC 2 PCR kit (BD/Clontech) was used for amplification. The PCR products (about 7 Kb) were TOPO-cloned into the pCR4Blunt vector (Invitrogen, Carlsbad, Calif.), and 6 clones of each gene were isolated. […] Full length versions of the two cDNAs corresponding to their respective Genbank sequences were assembled in pBluescript SK+ (Stratagene, La Jolla, Calif.) by combining error-free fragments from the PCR clones. The resulting hACC1 clone, designated pCS35, has six silent nucleotide differences compared to Genbank accession AY237919. The final hACC2 clone, designated pCS36, has ten silent nucleotide differences compared to Genbank accession AJ575592. Primers were designed to PCR amplify the cDNAs along with the in-frame 3′-his tag sequences from the pET vector and TOPO-cloned the resulting products into the Gateway® entry vector pENTR/D-TOPO. The ACC2 primers were designed to delete amino acids 1-148 and add Met-Gly in front of Lys149 in the final product. The resulting entry clones were transferred to BaculoDirect™ linear DNA (Invitrogen corp.) using the Gateway® LR recombination reaction. The recombinant baculovirus DNA was transfected into insect cells and viral amplification was performed according to the manufacturer's protocols. For protein expression sf9 cells were infected with a P3 viral stock in the presence of 50 uM biotin. The cells were harvested after 48-72 hr, lysed by sonication, and the resulting extract was clarified by centrifugation. ACC in the crude extract was concentrated by ammonium sulfate precipitation (40% w/v) and purified by Ni^2+-NTA chromatography (Novagen) followed by anion exchange chromatography on a UNO-Q column (BioRad).
(§2) Overall ACC activity in the hACC preparations is measured by following incorporation of [^14C]bicarbonate into […] essentially as described (Thumpy and Wakil, J Biol Chem 260, 6318-6323 (1985). Briefly, the reaction mixture (50 μL) contains: 50 mM Hepes (pH7.4), 20 mM K-Citrate, 20 mM Mg-Acetate 1.5 mM MgSO4, 2 mM DTT, 2 mM acetyl-CoA, 12 mM NaHCO3, 0.2 mM NaH^14CO3 (˜50 mCi/mmol), 0.01% (v/v) Triton X-100, 0.75 mg/mL BSA, 1% (v/v) DMSO (with or without inhibitor), and 0.3 μg (hACC1) or 0.15 μg (hACC2) enzyme. Reactions are initiated by the addition of ATP to a final concentration 2 mM. After 10 minutes at 37° C., the reaction is stopped by the addition of 2N HCl (50 μL). The samples are evaporated in a hood overnight, resuspended in H2O (200 μL), and incorporated label is quantified by scintillation counting in scintillation cocktail (3 mL). Inhibition data are fit to dose-response curves and IC50 values are reported (i.e. the concentration of inhibitor that gives 50% inhibition).

hACC2 = molecular target: T2, hACC2 (Homo sapiens, UniProt O00763); assay: as above; format: biochemical; details: recombinant hACC2, overall ACC activity
T2 construct: delete amino acids 1-148 and add Met-Gly in front of Lys149 in the final product; His tag (C); made in house; host or cells: baculovirus, Sf9 insect cells
T2 sequence (O00763 149-2458 limits assumed): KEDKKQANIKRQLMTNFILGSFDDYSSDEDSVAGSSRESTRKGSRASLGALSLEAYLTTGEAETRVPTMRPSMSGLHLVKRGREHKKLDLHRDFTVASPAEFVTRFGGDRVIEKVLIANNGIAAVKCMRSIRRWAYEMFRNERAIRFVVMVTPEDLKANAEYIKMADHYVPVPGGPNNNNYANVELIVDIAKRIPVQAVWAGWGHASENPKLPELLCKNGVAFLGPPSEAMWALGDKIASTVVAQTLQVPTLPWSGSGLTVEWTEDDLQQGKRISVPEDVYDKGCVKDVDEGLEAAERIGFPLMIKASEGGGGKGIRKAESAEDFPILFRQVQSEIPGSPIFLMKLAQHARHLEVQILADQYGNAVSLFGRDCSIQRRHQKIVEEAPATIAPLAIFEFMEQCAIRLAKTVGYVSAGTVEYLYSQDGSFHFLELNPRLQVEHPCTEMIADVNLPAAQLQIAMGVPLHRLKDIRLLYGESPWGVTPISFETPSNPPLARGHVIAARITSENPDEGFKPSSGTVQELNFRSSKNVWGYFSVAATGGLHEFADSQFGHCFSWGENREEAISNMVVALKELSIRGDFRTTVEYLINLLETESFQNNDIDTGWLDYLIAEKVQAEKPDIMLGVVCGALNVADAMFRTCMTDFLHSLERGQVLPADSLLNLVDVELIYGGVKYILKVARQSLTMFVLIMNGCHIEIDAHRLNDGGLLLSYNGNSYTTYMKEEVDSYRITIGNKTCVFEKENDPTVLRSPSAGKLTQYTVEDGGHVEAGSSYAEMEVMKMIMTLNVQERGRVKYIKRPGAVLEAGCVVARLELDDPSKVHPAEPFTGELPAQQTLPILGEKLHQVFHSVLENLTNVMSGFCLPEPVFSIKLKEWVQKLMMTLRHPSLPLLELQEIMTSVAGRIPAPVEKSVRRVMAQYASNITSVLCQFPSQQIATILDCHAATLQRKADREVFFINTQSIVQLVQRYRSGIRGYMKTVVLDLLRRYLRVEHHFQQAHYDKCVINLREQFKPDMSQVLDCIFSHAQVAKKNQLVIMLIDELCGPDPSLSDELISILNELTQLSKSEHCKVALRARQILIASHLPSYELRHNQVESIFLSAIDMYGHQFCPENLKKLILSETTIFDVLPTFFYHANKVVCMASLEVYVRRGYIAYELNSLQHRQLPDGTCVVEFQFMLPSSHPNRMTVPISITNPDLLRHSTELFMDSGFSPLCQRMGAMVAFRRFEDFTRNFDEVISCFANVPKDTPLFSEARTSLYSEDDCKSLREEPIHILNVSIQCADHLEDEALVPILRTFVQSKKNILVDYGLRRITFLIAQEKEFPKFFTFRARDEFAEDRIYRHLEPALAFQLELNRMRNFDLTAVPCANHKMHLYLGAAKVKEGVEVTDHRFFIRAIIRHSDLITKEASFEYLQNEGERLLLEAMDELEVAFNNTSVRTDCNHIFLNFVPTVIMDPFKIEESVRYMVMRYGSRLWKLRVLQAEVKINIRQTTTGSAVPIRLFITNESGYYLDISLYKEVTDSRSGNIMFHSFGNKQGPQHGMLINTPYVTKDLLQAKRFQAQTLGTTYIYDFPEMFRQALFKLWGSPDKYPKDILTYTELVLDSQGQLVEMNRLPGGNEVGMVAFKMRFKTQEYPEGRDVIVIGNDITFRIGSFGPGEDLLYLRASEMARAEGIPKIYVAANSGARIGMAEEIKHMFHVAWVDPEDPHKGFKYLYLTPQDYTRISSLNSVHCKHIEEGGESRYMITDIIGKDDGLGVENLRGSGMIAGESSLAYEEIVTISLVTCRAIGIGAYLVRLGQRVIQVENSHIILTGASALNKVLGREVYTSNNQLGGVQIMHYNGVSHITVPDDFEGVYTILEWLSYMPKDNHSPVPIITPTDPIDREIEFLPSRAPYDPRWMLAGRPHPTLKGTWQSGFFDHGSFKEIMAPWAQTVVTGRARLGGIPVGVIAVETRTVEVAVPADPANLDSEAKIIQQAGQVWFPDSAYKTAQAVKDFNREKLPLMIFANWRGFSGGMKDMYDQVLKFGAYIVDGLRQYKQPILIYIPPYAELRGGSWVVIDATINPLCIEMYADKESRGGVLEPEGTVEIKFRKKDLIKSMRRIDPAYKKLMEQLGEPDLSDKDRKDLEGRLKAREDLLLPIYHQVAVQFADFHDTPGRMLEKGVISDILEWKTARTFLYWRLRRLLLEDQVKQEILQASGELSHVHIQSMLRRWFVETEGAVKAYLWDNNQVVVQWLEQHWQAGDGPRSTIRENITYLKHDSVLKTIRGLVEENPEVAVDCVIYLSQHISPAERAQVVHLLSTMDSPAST
Protocol: as §1, §2

| Structure (SMILES) | IC50 (hACC1) | IC50 (hACC2) |
| --- | --- | --- |
| CCOc1ccc2c(c1)C(=O)NC1(CCN(C(=O)c3cc(OC)c4cccc(SC)c4c3)CC1)O2 [Compound 176] | 5 nM | – |
| COc1cc(C(=O)N2CCC3(CC2)NC(=O)c2cc(Br)ccc2N3)nc2c(OC)cccc12 [Compound 71, 6′-Bromo-1-[(4,8-dimethoxyquinoline-2-yl)carbonyl]spiro[piperidine-4,2′(1′H)-quinazolin]-4′-(3′H)-one] | 1000 nM | 490 nM |
| COc1ccc2c(c1)C(=O)NC1(CCN(C(=O)c3cc4c(OC)ccc(OC)c4[nH]3)CC1)O2 [Compound 182] | 160 nM | – |
| COc1cc(C(=O)N2CCC3(CC2)NC(=O)c2cc(OC(F)(F)F)ccc2N3)cc2c(OC)cccc12 [Compound 194] | 70 nM | – |
| COc1cccc2c(C)c(C(=O)N3CCC4(CC3)NC(=O)c3cc5ccccc5cc3O4)[nH]c12 [Compound 161, 1′-[[7-Methoxy-3-methyl-1H-indol-2-yl)carbonyl]spiro[2H-naphtho[2,3-e]-1,3-oxazin-2,4′-piperidin]-4-(3H)-one] | 8 nM | – |
| COc1ccc(OC)c2c1cc(C(=O)N1CCC3(CC1)NC(=O)c1cc(OC(C)C)ccc1O3)n2C [Compound 185] | 90 nM | 83 nM |
| COc1cc(C(=O)N2CCC3(CC2)NC(=O)c2cc(OC(C)C)ccc2O3)cc2[nH]ncc12 [Compound 230] | 110 nM | 85 nM |
| O=C1NC2(CCN(C(=O)c3ccc4[nH]cnc4c3)CC2)Oc2ccc(Br)cc21 [Compound 109, 1′-[(1H-benzimidazol-5-yl)carbonyl]-6-bromospiro[2H-1,3-benzoxazin-2,4′-piperidin]-4-(3H)-one] | 600 nM | 2900 nM |
| COc1cc(C(=O)N2CCC3(CC2)NC(=O)c2cc(C(C)C)ccc2O3)cc2c(SC)cccc12 [Compound 179] | 38 nM | – |
| COc1cc(C(=O)N2CCC3(CC2)NC(=O)c2cc(OC(F)(F)F)ccc2N3)nc2c(OC)cccc12 [Compound 195] | 500 nM | – |
| O=C1NC2(CCN(C(=O)c3cccc(-c4cc[nH]n4)c3)CC2)Oc2ccc(Br)cc21 [Compound 103, 6-Bromo-1′-[3-(1H-pyrazol-3-yl)benzoyl]spiro[2H-1,3-benzoxazin-2,4′-piperidin]-4-(3H)-one] | 1300 nM | 700 nM |
| COc1ccc(OC)c2[nH]c(C(=O)N3CCC4(CC3)NC(=O)c3cc(Br)ccc3O4)cc12 [Compound 16] | 260 nM | 200 nM |
| COc1ccc2c(c1)C(=O)NC1(CCN(C(=O)c3[nH]c4c(OC)cccc4c3C)CC1)N2 [Compound 189, 6′-Methoxy-1-[[7-methoxy-3-methyl-1H-indol-2-yl)carbonyl]spiro-[piperidine-4,2′(1′H)-quinazolin]-4′-(3′H)-one] | 500 nM | – |
| COc1cc(C(=O)N2CCC3(CC2)NC(=O)c2cc(C)ccc2N3)cc2c(OC)cccc12 [Compound 192] | 160 nM | – |
| COc1cc(C(=O)N2CCC3(CC2)NC(=O)c2cc(OC(F)(F)F)ccc2O3)cc2c(SC)cccc12 [Compound 175] | 21 nM | – |
| COc1cc2c(OC)cccc2cc1C(=O)N1CCC2(CC1)Oc1ccc(Br)cc1C(=O)N2C [Compound 138, 6-Bromo-1′-[(3,5-dimethoxynaphth-2-yl)carbonyl]-3-methylspiro[2H-1,3-benzoxazin-2,4′-piperidin]-4-(3H)-one] | 1200 nM | 880 nM |
| COc1ccc2c(c1)C(=O)NC1(CCN(C(=O)c3cc(OC)c4cccc(SC)c4c3)CC1)O2 [Compound 177] | 5 nM | – |
| COc1cc2c(OC)cccc2cc1C(=O)N1CCC2(CC1)NC(=O)c1cc(NC(C)=O)ccc1O2 [Compound 132, 6-Acetamido-1′-[(3,5-dimethoxynaphth-2-yl)carbonyl]spiro[2H-1,3-benzoxazin-2,4′-piperidin]-4-(3H)-one] | 800 nM | 300 nM |
| COc1cc(C(=O)N2CCC3(CC2)NC(=O)c2cc(OC(F)(F)F)ccc2O3)cc2c(OC)cccc12 [Compound 173] | 6 nM | – |
| Cn1nccc1-c1cccc(C(=O)N2CCC3(CC2)NC(=O)c2cc(Br)ccc2O3)c1 [Compound 141, 6-Bromo-1′-[3-(1-methyl-1H-pyrazol-5-yl)benzoyl]spiro[2H-1,3-benzoxazin-2,4′-piperidin]-4-(3H)-one] | – | 1300 nM |
| COc1cc(C(=O)N2CCC3(CC2)NC(=O)c2cc(N4CCOCC4)ccc2O3)cc2c(OC)cccc12 [Compound 197] | 4 nM | – |
| COc1cc(C(=O)N2CCC3(CC2)NC(=O)c2cc(OC(C)C)ccc2O3)cc2c(OC)cccc12 [Compound 170] | 6 nM | – |
| COc1ccc2c(c1)C(=O)NC1(CCN(C(=O)c3cc4c(OC)ccc(OC)c4n3C)CC1)O2 [Compound 181] | 420 nM | – |
| COc1ccc2cc3c(cc2c1)C(=O)NC1(CCN(C(=O)c2cc(OC)c4cccc(OC)c4c2)CC1)O3 [Compound 162] | 5 nM | – |
| COc1cccc2c(C)c(C(=O)N3CCC4(CC3)NC(=O)c3cc(N)ccc3O4)[nH]c12 [Compound 183] | 430 nM | – |
| COc1cc2c(cc1OC)C(=O)NC1(CCN(C(=O)c3cc(OC)c4cccc(OC)c4c3)CC1)N2 [Compound 190] | 62 nM | – |
| COc1cc2c(cc1OC)C(=O)NC1(CCN(C(=O)c3cc(OC)c4cccc(OC)c4n3)CC1)N2 [Compound 191] | 190 nM | – |

Now from value to compound:

| IC50 (hACC1) | IC50 (hACC2) | Structure (SMILES) |
| --- | --- | --- |
| 140 nM | 110 nM | COc1cc(C(=O)N2CCC3(CC2)NC(=O)c2cc(Br)ccc2O3)nc2c(SC)cccc12 [Compound 133] |
| 33 nM | 48 nM | COc1ccc2c(c1)C(=O)NC1(CCN(C(=O)c3cc(OC)c4cccc(SC)c4n3)CC1)O2 [Compound 157] |
| 180 nM | 110 nM | COc1cc(C(=O)N2CCC3(CC2)NC(=O)c2cc(Br)ccc2O3)nc2c(C3CC3)cccc12 [Compound 32] |
| 16 nM | 11 nM | COc1cc(C(=O)N2CCC3(CC2)NC(=O)c2cc(-c4nnn[nH]4)ccc2O3)nc2c(OC)cccc12 [Compound 10] |
| 4700 nM | – | COc1cc(C(=O)N2CCC3(CC2)NC(=O)c2cc(Br)ccc2O3)nc2c(C(C)C)cccc12 [Compound 134] |
| 35 nM | 25 nM | CCOc1ccc2c(c1)C(=O)NC1(CCN(C(=O)c3cc(OC)c4cccc(SC)c4n3)CC1)O2 [Compound 149] |
| 430 nM | 1100 nM | COc1cc(C(=O)N2CCC3(CC2)NC(=O)c2cc(Br)ccc2N3)nc2c(SC)cccc12 [Compound 93] |
| 140 nM | 180 nM | COc1cccc2c(C)c(C(=O)N3CCC4(CC3)NC(=O)c3cc(Br)ccc3O4)[nH]c12 [Compound 23] |
| 35 nM | 16 nM | COc1cc(C(=O)N2CCC3(CC2)NC(=O)c2cc(C)c(C)cc2O3)nc2c(OC)cccc12 [Compound 153] |
| 2200 nM | – | COc1cc(C(=O)N2CCC3(CC2)NC(=O)c2cc(Br)ccc2O3)c(OC)c2ccccc12 [Compound 135, 6-Bromo-1′-[(1,4-dimethoxynaphth-2-yl)carbonyl]spiro[2H-1,3-benzoxazin-2,4′-piperidin]-4-(3H)-one] |
| – | 900 nM | COc1cc(C(=O)N2CCC3(CC2)NC(=O)c2cc(Br)ccc2O3)nc2ccccc12 [Compound 40] |
| 14 nM | – | COc1cc(C(=O)N2CCC3(CC2)NC(=O)c2cc(C(C)C)ccc2O3)cc2c(OC)cccc12 [Compound 178] |
| – | 8 nM | COc1cc(C(=O)N2CCC3(CC2)NC(=O)c2cc4ccccc4cc2O3)nc2c(SC)cccc12 [Compound 158] |
